Laboratory results: article PMC11374953, “Heteroaryl derivatives of suvorexant as OX1R selective PET ligand candidates: Cu-mediated ^18F-fluorination of boroxines, in vitro and initial in vivo evaluation” (EJNMMI Research, 2024)

Legend:
human OX1R = molecular target: T1, human OX1R (Homo sapiens, UniProt O43613); design: method as in PMID 32669442; conditions: data from previous work, cited from earlier work
T1 construct: host or cells: HEK293T
T1 sequence (O43613 1-425): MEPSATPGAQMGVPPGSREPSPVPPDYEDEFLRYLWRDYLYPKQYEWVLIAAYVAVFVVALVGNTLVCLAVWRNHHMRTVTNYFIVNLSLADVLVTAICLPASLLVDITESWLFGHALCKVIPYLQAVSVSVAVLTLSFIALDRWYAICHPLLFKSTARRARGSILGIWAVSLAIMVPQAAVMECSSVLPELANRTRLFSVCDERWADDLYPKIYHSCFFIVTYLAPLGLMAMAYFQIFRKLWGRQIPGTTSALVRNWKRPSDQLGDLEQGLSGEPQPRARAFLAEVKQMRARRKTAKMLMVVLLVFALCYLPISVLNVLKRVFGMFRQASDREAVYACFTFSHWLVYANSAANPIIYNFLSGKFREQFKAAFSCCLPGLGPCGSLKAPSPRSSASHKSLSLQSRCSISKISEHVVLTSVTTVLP

human OX2R = molecular target: T2, human OX2R (Homo sapiens, UniProt O43614); design: method as in PMID 32669442; conditions: HEK293T homogenates; data from previous work; read-out: Ki values (nM ± SEM) hOX2R; cited from earlier work
T2 construct: host or cells: HEK293T
T2 sequence (O43614 1-444): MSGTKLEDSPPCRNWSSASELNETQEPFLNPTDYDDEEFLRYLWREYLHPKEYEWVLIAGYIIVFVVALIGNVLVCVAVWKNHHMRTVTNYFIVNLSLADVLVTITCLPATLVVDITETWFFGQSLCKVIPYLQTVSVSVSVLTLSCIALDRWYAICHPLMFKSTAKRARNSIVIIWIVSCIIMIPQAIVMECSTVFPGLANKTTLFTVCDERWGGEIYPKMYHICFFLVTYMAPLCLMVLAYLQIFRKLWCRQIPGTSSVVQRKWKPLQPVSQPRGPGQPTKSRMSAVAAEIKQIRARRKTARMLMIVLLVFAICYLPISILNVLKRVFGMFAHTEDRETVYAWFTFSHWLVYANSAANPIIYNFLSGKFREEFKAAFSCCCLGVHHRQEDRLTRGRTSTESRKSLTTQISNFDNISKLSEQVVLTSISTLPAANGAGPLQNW

[1] = Partition coefficient logD7.4 (n-octanol/PBS); format: physicochemical; conditions: n-octanol/PBS pH 7.4, mean ± SD
Experimental: Phosphate-buffered saline (PBS, 480 µL, pH 7.4) and n-octanol (500 µL) were placed in an Eppendorf tube. The radioligand (30–50 kBq, [^18F]1c or [^18F]1f) in PBS (20 µL) was added to the tube, vortexed for 1 min and centrifuged (20,000g, 1 min). Three samples (100 µL) from each layer were collected and measured by a γ-counter (Wallac Wizard 1470, PerkinElmer, USA). After the average cpm values from the triplicate measurements of each layer were calculated, the logD7.4 was determined as the logarithm of the ratio of n-octanol (mean cpm) to PBS (mean cpm). The mean logD7.4 value ± standard deviation was determined by at least three independent experiments each performed in triplicates.

[2] = Plasma protein binding (MicroSpin G-50 columns); format: in vitro ADME; conditions: human plasma, 37 °C, read-out: plasma protein binding (PPB) (converted)
Experimental: The radiotracer (100–200 kBq, [^18F]1c or [^18F]1f) in PBS (2 µL) was incubated with human plasma (100 µL) at 37 °C for 10 min. After preconditioning of the microcolumns according to the instructions of the manufacturer (illustra MicroSpin G-50 columns from GE Healthcare), a sample (40 µL) of was applied to the resin. The microspin tubes were centrifuged (2000g, 2 min) and both, eluate and resin were measured by a γ-counter (Wallac Wizard 1470, PerkinElmer, USA). The PPB was calculated as percentage of bound ligand (cpm of resin) from the total amount of radioactivity (sum of cpm of resin and eluate). Samples from incubation of the radiotracer in saline instead of plasma served as negative control. The mean PPB value was determined from at least two independent experiments each performed in triplicate.

[3] = Radioligand stability in human plasma and human serum; format: in vitro ADME; conditions: 37 °C, up to 120 min, radio-HPLC
Experimental: (§1) The radioligand (1–2 MBq, [^18F]1c or [^18F]1f) in PBS (20 µL) was incubated with human serum, human plasma or rat plasma (400 µL) at 37 °C. Samples (50 µL) were taken at 5, 10, 15, 30, 60 and 120 min, mixed with aqueous TFA (10%, 50 µL) and centrifuged (20,000g, 2 min). The supernatant (20 µL) was analyzed by radio-HPLC.

[4] = Radioligand stability in rat plasma; format: in vitro ADME; conditions: 37 °C, up to 120 min, radio-HPLC
Experimental: as §1

[5] = Dynamic small animal PET imaging of the rat brain; format: in vivo
Experimental: Small animal PET experiments in rats were performed to allow for an initial comparison in single animals that were injected with [^18F]1c or [^18F[1f alone, after preinjection of suvorexant (1 mg/kg), and after pretreatment with cyclosporine A (25 mg/kg) (Fig. 3). […] Therefore, to elucidate the P-gp-mediated transport of the compounds, specific experiments were performed.
Fig. 3 Time-activity curves and horizontal PET slices of the rat brain after injection of [^18F]1c (A, C) and [^18F]1f (B, D). Single animals were injected with the tracer alone (“control”, blue) compared to animals preinjected with suvorexant (1 mg/kg, 15 min prior to tracer injection, each n = 1; “blocking”, red) or cyclosporine A (25 mg/kg, 30 min prior to tracer injection, each n = 1; green)
Ten- to 13-week-old female CD Sprague–Dawley rats (250–300 g, Charles River) were housed with free access to standard rat chow (Purina) and water at all times. Dynamic small animal PET scans were performed on an Inveon™ microPET scanner (Siemens Healthineers AG, Erlangen, Germany). All rats were continuously anesthetized using isoflurane (2–3% in oxygen, 0.8 L/min) and placed on a heating pad (37 °C) during the PET scan. Rats were injected intravenously in the tail vein with the radioligand in saline (5–15 MBq in 200–300 µL, [^18F]1c or [^18F]1f). Pretreatment with suvorexant (1 mg/kg, 15 min prior to tracer injection) or cyclosporine A (25 mg/kg, […] to tracer injection) was done intravenously. Dynamic PET scans were acquired from 0 to 60 min p.i. and consisted of 23 frames with increasing duration (12 × 10 s, 3 × 1 min, 5 × 5 min and 3 × 10 min). Subsequently, an attenuation scan with a rotating Co-57 point source was performed. The obtained dynamic emission images were subjected to an attenuation and decay correction. After the iterative maximum a posteriori (MAP) estimation for the image reconstruction, regions of interest (ROIs) were drawn for the whole brain. Computational processing of the PET scans was done with the software PMOD (PMOD Technologies LLC). The data obtained were finally converted into values expressed as percent of injected dose per gram (%ID/g).

[6] = cited from earlier work

SMILES: CC[C@H](C)[C@H]1CN(c2nc3cc(Cl)ccc3o2)CCCN1C(=O)c1cc(C)ccc1-n1nccn1 [JH112]
- Ki (human OX1R; HEK293T membranes, read-out: Ki values (nM ± SEM) hOX1R): 0.72 ± 0.08 nM
- OX1R selectivity Ki(hOX2R)/Ki(hOX1R) (human OX1R; Ki for OX2R divided by Ki for OX1R): 75
- Ki (human OX2R): 54 ± 7 nM

SMILES: CC[C@H](C)[C@H]1CN(c2nc3ccc([18F])cc3s2)CCCN1C(=O)c1cc(C)ccc1-n1nccn1 [[^18F]1f, {(S)-2-[(S)-sec-butyl]-4-(6-[^18F]fluorobenzo[d]thiazol-2-yl)-1,4-diazepan-1-yl}[5-methyl-2-(2H-1,2,3-triazol-2-yl)phenyl]methanone]
- logD [1]: 2.37
- fraction unbound at 10 min [2]: 0.23
- stability in human plasma [3]: stable over 120 min
- stability in human serum [3]: stable over 120 min
- stability in rat plasma [4]: stable over 120 min
- brain uptake after pretreatment with cyclosporine A ([5]; cyclosporine A 25 mg/kg i.v. prior to tracer, n = 1): 0.18 %ID/g
- brain uptake after preinjection of suvorexant ([5]; suvorexant 1 mg/kg i.v. 15 min prior to tracer, n = 1): not affected
- time of maximum brain uptake p.i. ([5]; tracer alone i.v.): 24 s
- maximum brain uptake ([5]; tracer alone i.v., whole brain, n = 1): 0.15 %ID/g

SMILES: Cc1ccc(-n2nccn2)c(C(=O)N2CCN(c3nc4cc(Cl)ccc4o3)CC[C@H]2C)c1 [suvorexant]
- protein-bound fraction in the blood [6]: > 99%
